Test results published in ChEMBL document CHEMBL5724558, “Image-based profiling of drug vulnerabilities in CRC organoids” (2024).
Values joined by “and” are separate entries in the source; they are usually repeats but may differ in a detail not shown here. Equal entries are not always repeated.

Tests used:
Type in all cases: functional, Homo sapiens
Parameters in all cases: dose or concentration left out as unconfirmed
Colon cancer organoid [1] = test: (§1) Image-based profiling of donated chemical probes and chemogenomic kinase set in O21 CRC organoid. Image analysis is performed on the sum area metric, and the data were normalized to the DMSO control. After imaging the organoid viability is measured using the OneGloEX Luciferase Assay System. The normalized viability data and sum area are reported.
Colon cancer organoid [2] = test: as §1, with “O06” for “O21”
Colon cancer organoid [3] = test: as §1, with “O09” for “O21”

Row | Structure (SMILES) | Cell Viability (Colon cancer organoid [1]; Replication number 1) | Cell Viability (Colon cancer organoid [1]; Replication number 2) | Cell Viability (Colon cancer organoid [2]; Replication number 1) | Cell Viability (Colon cancer organoid [2]; Replication number 2) | Cell Viability (Colon cancer organoid [3]; Replication number 1) | Cell Viability (Colon cancer organoid [3]; Replication number 2)
1 | Cn1cnc2c(F)c(Nc3ccc(Br)cc3Cl)c(C(=O)NOCCO)cc21 [SELUMETINIB] | 30.9074% and 27.5425% | 36.6071% and 40.747% | 17.7792% and 31.8399% | 27.9489% and 57.8656% | 59.0124% and 83.6445% | 134.387% and 96.018%
2 | O=C(O)c1ccc2c(c1)nc(Nc1cccc(Cl)c1)c1ccncc12 [SILMITASERTIB] | 103.567% and 112.056% | 102.008% and 128.967% | 95.4776% and 72.7779% | 97.8% and 96.4524% | 75.9271% and 48.6208% | 96.2856% and 65.3282%
3 | N#Cc1cnc(Nc2cc(NC[C@H]3CNCCO3)c(C(F)(F)F)cn2)cn1 [SRA-737] | 21.4207% and 61.8815% | 26.4159% and 74.8471% | 47.9437% and 94.589% | 63.1754% and 83.4961% | 93.3475% and 86.0215% | 90.1274% and 73.6966%
4 | O=C1c2ccc(Nc3ccc(F)cc3F)cc2CCc2ccc(OC[C@H](O)CO)cc21 [Skepinone-L] | 124.274% and 139.142% | 112.785% and 100.442% | 90.1352% and 107.854% | 111.788% and 116.531% | 97.726% and 98.0993% | 77.28% and 97.9381%
5 | CN1CCN(C(=O)C(C)(C)c2ccc(C(=O)Nc3cn4cc(-c5cc(C(C)(C)C)cc(C(C)(C)C)c5)ccc4n3)cc2)CC1 [T3-CLK-N] | 88.9475% and 97.2186% | 93.8303% and 107.653% | 75.6351% and 77.2834% | 96.9336% and 98.0752% | 89.0201% and 93.1776% | 119.23% and 117.123%
6 | CN1CCN(C(=O)C(C)(C)c2ccc(C(=O)Nc3cn4cc(-c5ccncc5)ccc4n3)cc2)CC1 [T3-CLK] | 57.8975% and 103.622% | 54.6627% and 104.082% | 42.3595% and 97.4239% | 42.5998% and 77.939% | 41.227% and 51.6061% | 31.6537% and 31.5444%
7 | COc1cccc(CNC(=O)c2nc3scc(CN(C)Cc4ccccc4)c3c(=O)[nH]2)c1 [T-26f] | 98.5646% and 83.8292% | 88.8685% and 86.2245% | 86.0581% and 83.8408% | 86.5317% and 78.1759% | 195.868% and 94.1333% | 147.324% and 100.767%
8 | O[C@H]1CC[C@H](Nc2ncc3nc(Nc4c(F)cc(F)cc4F)n([C@H]4CCOC4)c3n2)CC1 [TANZISERTIB] | 99.1681% and 86.9686% | 119.868% and 95.5739% | 85.5595% and 88.3572% | 111.493% and 110.437% | 161.464% and 97.9897% | 183.086% and 108.79%
9 | Cc1nc(-c2cn3c(n2)-c2ccc(-c4cnn(C(C)(C)C(N)=O)c4)cc2OCC3)n(C(C)C)n1 [TASELISIB] | 74.483% and 67.4564% | 68.3353% and 63.3321% | 24.4584% and 46.9606% | 18.3941% and 28.1748% | 40.2908% and 23.1884% | 43.7188% and 27.2651%
10 | COc1cccc2c1c(O)c(C(=O)N(C)c1ccc(C(F)(F)F)cc1)c(=O)n2C [TASQUINIMOD] | 88.1859% and 108.165% | 81.4636% and 102.566% | 48.5879% and 75.1409% | 109.678% and 108.736% | 111.782% and 95.2859% | 96.4426% and 87.5198%
11 | C[C@@H]1CCN(C(=O)CC#N)C[C@@H]1N(C)c1ncnc2[nH]ccc12.O=C(O)CC(O)(CC(=O)O)C(=O)O [TOFACITINIB CITRATE] | 116.988% and 133.24% | 108.318% and 111.695% | 54.8894% and 73.0004% | 74.5746% and 82.0566% | 230.679% and 101.979% | 85.7625% and 94.2129%
12 | CCC(=O)N1CCN(c2ccc(-n3c(=O)ccc4cnc5ccc(-c6cnc7ccccc7c6)cc5c43)cc2C(F)(F)F)CC1 [TORIN1] | 35.688% and 65.784% | 42.752% and 81.756% | 3.399% and 11.5065% |  | 18.1039% and 19.199% | 16.4682% and 14.0105%
13 | Cc1cnc(-c2cc(Cl)ccc2F)cc1-n1c(=O)n(CC(N)=O)c2cnccc21 [TP-008] | 94.8191% and 94.398% | 86.5351% and 93.3039% | 69.5011% and 111.741% | 79.5252% and 108.842% | 46.9462% and 85.5321% | 76.2638% and 97.3434%
14 | Cn1nc(C(F)(F)F)cc1-c1cnc(N2CCc3cc(S(=O)(=O)Nc4c(F)cc(Cl)cc4F)cc(N4CCCC4=O)c32)nc1 [TP-020] | 100.4% and 89.0686% | 74.5209% and 80.6122% | 97.5497% and 105.152% | 112.528% and 137.4% | 176.236% and 116.591% | 145.95% and 107.484%
15 | Cc1cc(-n2nc(Cc3cc(F)cc(C(F)(F)F)c3)nc2C)ccc1C(N)=O [TP-024] | 86.6903% and 89.6507% | 83.205% and 88.2653% | 119.634% and 111.944% | 93.5275% and 86.4673% | 194.223% and 140.244% | 90.9356% and 75.9401%
16 | CC1CCN(c2ccnc(NCc3cn(C)cn3)n2)CC1 [TP-040] | 98.573% and 105.41% | 113.293% and 110.51% | 114.457% and 102.441% | 78.7525% and 90.5361% | 164.974% and 118.043% | 162.348% and 114.826%
17 | CN1CCN(c2ccnc(NCCc3ccccc3)n2)CC1 [TP-040n] | 124.161% and 101.443% | 125.774% and 83.8743% | 105.696% and 108.533% | 89.6424% and 87.2137% | 119.963% and 93.2958% | 137.241% and 93.2958%
18 | CC(=O)Nc1cccc(-n2c(=O)n(C3CC3)c(=O)c3c(Nc4ccc(I)cc4F)n(C)c(=O)c(C)c32)c1 [TRAMETINIB] | 17.3032% and 24.3122% | 17.3841% and 17.3982% | 5.765% and 5.759% | 5.411% and 4.125% | 7.185% and 14.6007% | 7.6439% and 10.8886%
19 | Cc1ccc2[nH]c(CNCCCc3ccncc3)cc(=O)c2c1 [UCSF924NC] | 94.0995% and 104.765% | 78.5864% and 74.4392% | 91.5293% and 106.883% | 122.187% and 128.063% | 130.653% and 96.5987% | 94.8728% and 93.7748%
